20 compounds from patent US8748417B2, “Amino-pyrrolidine-azetidine diamides as monoacylglycerol lipase inhibitors” (Janssen Pharmaceutica, NV, priority 2010, dated 2014) can be followed below.

Format in all cases: biochemical
Test [1] addresses T1, purified mutant MGL (mut-MGLL 11-313 L179S L186S) (Homo sapiens, UniProt Q99685, L169S/L176S).
T1 construct: purified mutant MGL (mut-MGLL 11-313 L179S L186S)
T1 sequence (Q99685 1-303 L169S/L176S): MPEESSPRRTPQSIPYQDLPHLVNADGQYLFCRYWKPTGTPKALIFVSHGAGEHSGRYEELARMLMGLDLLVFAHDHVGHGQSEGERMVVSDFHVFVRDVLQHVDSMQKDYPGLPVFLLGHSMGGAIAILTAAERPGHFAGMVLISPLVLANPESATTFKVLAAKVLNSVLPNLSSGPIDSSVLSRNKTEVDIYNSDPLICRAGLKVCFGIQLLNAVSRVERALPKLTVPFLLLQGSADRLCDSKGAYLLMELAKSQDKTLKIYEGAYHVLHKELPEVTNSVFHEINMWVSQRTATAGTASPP
The test is described as follows: MGL enzyme activity assay (4MU-B cleavage), mutant MGL. The note with it: mutant MGL 5 nM, 4MU-B 10 μM, 37° C.; read-out: MGL mutant inh IC50. As to the method:
All rate-based assays were performed in black 384-well polypropylene PCR microplates (Abgene) in a total volume of 30 μL. Substrate 4-methylumbelliferyl butyrate (4MU-B; Sigma) and either purified mutant MGL (mut-MGLL 11-313 L179S L186S) or purified wild type MGL (wt-MGLL 6H-11-313) were diluted separately into 20 mM PIPES buffer (pH=7.0), containing 150 mM NaCl and 0.001% Tween 20. Compounds of Formula (I) were pre-dispensed (50 nL) into the assay plate using a Cartesian Hummingbird prior to adding 4MU-B (25 μL of 1.2× solution to a final concentration of 10 μM) followed by enzyme (5 μL of a 6× solution to a final concentration of 5 nM) to initiate the reaction. Final compound concentrations ranged from 17 to 0.0003 μM. The fluorescence change due to 4MU-B cleavage was monitored with excitation and emission wavelengths of 335 and 440 nm, respectively, and a bandwidth of 10 nm (Safire^2, Tecan) at 37° C. for 5 min.
The IC50 values for the following compounds were determined using Microsoft Office Excel from a fit of the equation to the concentration-response plot of the fractional activity as a function of inhibitor concentration.

Test [2] deals with T2, purified wild type MGL (wt-MGLL 6H-11-313) (Homo sapiens, UniProt Q99685).
T2 construct: purified wild type MGL (wt-MGLL 6H-11-313)
T2 sequence (Q99685 1-303): T1 sequence (Q99685 1-303 L169S/L176S) with S169L, S176L
In words: MGL enzyme activity assay (4MU-B cleavage), wild type MGL. Conditions: wild type MGL 5 nM, 4MU-B 10 μM, 37° C.; read-out: MGL wild type inh IC50. The method in brief:
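Enzyme in 20 mM PIPES pH 7.0, 150 mM NaCl, 0.001% Tween 20 with 4MU-B at 10 μM final and MGL at 5 nM final; compounds 17 to 0.0003 μM final, enzyme added last. Fluorescence (ex 335/em 440 nm) followed at 37° C for 5 min; IC50 from fit of fractional activity versus inhibitor concentration.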

Test [3] deals with MGL (rat brain homogenate). In words: 2-AG accumulation assay in rat brain homogenate. Conditions: compound 1 μM, percent of vehicle 2-AG accumulation. The method in brief:
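Rat brain homogenate was incubated with compound for 15 min at 37° C., after which CaCl2 was added to a final concentration of 10 mM and incubation continued for 15 min at 37° C. in 5 mL total. Reactions were stopped with 6 mL of 2:1 chloroform/methanol, and 2-AG accumulated in the organic phase was quantified by HPLC/MS.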

Structures are written as SMILES. Substitutions are numbered along the chain they refer to.

Consider `O=C(c1ccc(-c2cccc(C(F)(F)F)c2)cc1)N1CC(N[C@@H]2CN(C(=O)c3ccccc3)C[C@H]2O)C1` (relative stereo) [Cpd 72, trans-1-(Phenylcarbonyl)-4-[(1-{[3′-(trifluoromethyl)biphenyl-4-yl]carbonyl}azetidin-3-yl)amino]pyrrolidin-3-ol], for which, in test [1], the IC50 (usually the concentration needed to halve the response being measured) worked out at 757 nM.

Regarding `O=C(c1ccc(-c2ccccc2)cc1)N1CC(N[C@@H]2CN(C(=O)c3ccccc3)C[C@H]2O)C1` (relative stereo) [Cpd 78, trans-4-{[1-(Biphenyl-4-ylcarbonyl)azetidin-3-yl]amino}-1-(phenylcarbonyl)pyrrolidin-3-ol], the IC50 in test [1] came to 13400 nM.

On to `O=C(c1ccc(-c2ccccc2)cc1)N1CC(N[C@H]2CCN(C(=O)c3nccs3)C2)C1` [Cpd 1, (3S)-N-[1-(Biphenyl-4-ylcarbonyl)azetidin-3-yl]-1-(1,3-thiazol-2-ylcarbonyl)pyrrolidin-3-amine], for which, in test [1], the IC50 was 116 nM.

For the compound `O=C(c1ccc(-c2ccccc2)cc1)N1CC(N[C@H]2CCN(C(=O)c3ccccc3)C2)C1` [Cpd 2, (3S)-N-[1-(Biphenyl-4-ylcarbonyl)azetidin-3-yl]-1-(phenylcarbonyl)pyrrolidin-3-amine], the IC50 in test [1] was found to be 122 nM.

As to `O=C(c1ccc(Cc2ccccc2)cc1)N1CC(N[C@@H]2CCN(C(=O)c3nccs3)C2)C1` [Cpd 6, (3R)-N-{1-[(4-Benzylphenyl)carbonyl]azetidin-3-yl}-1-(1,3-thiazol-2-ylcarbonyl)pyrrolidin-3-amine], the IC50 in test [1] came out at 490 nM.

For `O=C(c1ccccc1)N1CC[C@H](NC2CN(C(=O)c3sc4cc(-c5ccc(C(F)(F)F)cc5)ccc4c3F)C2)C1` [Cpd 179, (3S)-N-[1-({3-Fluoro-6-[4-(trifluoromethyl)phenyl]-1-benzothiophen-2-yl}carbonyl)azetidin-3-yl]-1-(phenylcarbonyl)pyrrolidin-3-amine], the IC50 in test [2] came out at 12 nM. Also, the “Rat Brain 2AG % VehCntrl (%) @1 μM” value in test [3] stood at 259%.

`O=C(c1ccccc1)N1CC[C@H](NC2CN(C(=O)c3sc4ccc(Cl)cc4c3C(F)(F)F)C2)C1` [Cpd 180, (3S)-N-(1-{[5-Chloro-3-(trifluoromethyl)-1-benzothiophen-2-yl]carbonyl}azetidin-3-yl)-1-(phenylcarbonyl)pyrrolidin-3-amine]: the IC50 in test [2] came to 42.7 nM. The “Rat Brain 2AG % VehCntrl (%) @1 μM” value in test [3] is 333%.

Take `O=C(c1cscn1)N1CC[C@H](NC2CN(C(=O)c3sc4ccc(Cl)cc4c3C(F)(F)F)C2)C1` [Cpd 181, (3S)-N-(1-{[5-Chloro-3-(trifluoromethyl)-1-benzothiophen-2-yl]carbonyl}azetidin-3-yl)-1-(1,3-thiazol-4-ylcarbonyl)pyrrolidin-3-amine]: the IC50 in test [2] came out at 39.6 nM. Besides, in test [3], the “Rat Brain 2AG % VehCntrl (%) @1 μM” value came to 241%.

As for `O=C(c1nccs1)N1CC[C@H](NC2CN(C(=O)c3sc4cc(Cl)ccc4c3C(F)(F)F)C2)C1` [Cpd 183, (3S)-N-(1-{[6-Chloro-3-(trifluoromethyl)-1-benzothiophen-2-yl]carbonyl}azetidin-3-yl)-1-(1,3-thiazol-2-ylcarbonyl)pyrrolidin-3-amine], in test [2], the IC50 is 23.1 nM. In test [3], the “Rat Brain 2AG % VehCntrl (%) @1 μM” value was found to be 316%.

In the case of `Cc1ccc2c(C(F)(F)F)c(C(=O)N3CC(N[C@H]4CCN(C(=O)c5nccs5)C4)C3)sc2c1` [Cpd 186, (3S)-N-(1-{[6-Methyl-3-(trifluoromethyl)-1-benzothiophen-2-yl]carbonyl}azetidin-3-yl)-1-(1,3-thiazol-2-ylcarbonyl)pyrrolidin-3-amine], the IC50 in test [2] stood at 90.5 nM. In test [3], the “Rat Brain 2AG % VehCntrl (%) @1 μM” value is on record as 563%.

`O=C(c1ccc2c(-c3ccccc3)c[nH]c2c1)N1CC(N[C@H]2CCN(C(=O)c3nccs3)C2)C1` [Cpd 187, (3S)-N-{1-[(3-Phenyl-1H-indol-6-yl)carbonyl]azetidin-3-yl}-1-(1,3-thiazol-2-ylcarbonyl)pyrrolidin-3-amine]: in test [2], the IC50 was less than 5 nM. In test [3], the “Rat Brain 2AG % VehCntrl (%) @1 μM” value is on record as 242%.

`O=C(c1ccc2c(-c3ccccc3)c[nH]c2c1)N1CC(N[C@H]2CCN(C(=O)c3cscn3)C2)C1` [Cpd 188, (3S)-N-{1-[(3-Phenyl-1H-indol-6-yl)carbonyl]azetidin-3-yl}-1-(1,3-thiazol-4-ylcarbonyl)pyrrolidin-3-amine]: the IC50 in test [2] is 74.9 nM. Moreover, the “Rat Brain 2AG % VehCntrl (%) @1 μM” value in test [3] is 140%.

Regarding `O=C(c1ccc2c(-c3ccc(F)cc3)c[nH]c2c1)N1CC(N[C@H]2CCN(C(=O)c3nccs3)C2)C1` [Cpd 189, (3S)-N-(1-{[3-(4-Fluorophenyl)-1H-indol-6-yl]carbonyl}azetidin-3-yl)-1-(1,3-thiazol-2-ylcarbonyl)pyrrolidin-3-amine], in test [2], the IC50 stood at 12.5 nM. In addition, the “Rat Brain 2AG % VehCntrl (%) @1 μM” value in test [3] is given as 277%.

For the compound `Cn1cc(-c2ccc(F)cc2)c2ccc(C(=O)N3CC(N[C@H]4CCN(C(=O)c5nccs5)C4)C3)cc21` [Cpd 192, (3S)-N-(1-{[3-(4-Fluorophenyl)-1-methyl-1H-indol-6-yl]carbonyl}azetidin-3-yl)-1-(1,3-thiazol-2-ylcarbonyl)pyrrolidin-3-amine], the IC50 in test [2] was less than 5 nM. For the same compound, the “Rat Brain 2AG % VehCntrl (%) @1 μM” value in test [3] is on record as 374%.

On to `Cn1cc(-c2ccc(F)cc2)c2ccc(C(=O)N3CC(N[C@H]4CCN(C(=O)c5cscn5)C4)C3)cc21` [Cpd 193, (3S)-N-(1-{[3-(4-Fluorophenyl)-1-methyl-1H-indol-6-yl]carbonyl}azetidin-3-yl)-1-(1,3-thiazol-4-ylcarbonyl)pyrrolidin-3-amine], for which, in test [2], the IC50 stood at 19 nM. The “Rat Brain 2AG % VehCntrl (%) @1 μM” value in test [3] was 219%.

In the case of `Cn1cc(-c2ccc(F)cc2)c2ccc(C(=O)N3CC(N[C@H]4CCN(C(=O)c5ccccc5)C4)C3)cc21` [Cpd 194, (3S)-N-(1-{[3-(4-Fluorophenyl)-1-methyl-1H-indol-6-yl]carbonyl}azetidin-3-yl)-1-(phenylcarbonyl)pyrrolidin-3-amine], the IC50 in test [2] was 44.9 nM. Besides, the “Rat Brain 2AG % VehCntrl (%) @1 μM” value in test [3] stood at 178%.

For `Cn1nc(-c2ccccc2)c2cc(C(=O)N3CC(N[C@H]4CCN(C(=O)c5nccs5)C4)C3)ccc21` [Cpd 195, (3S)-N-{1-[(1-Methyl-3-phenyl-1H-indazol-5-yl)carbonyl]azetidin-3-yl}-1-(1,3-thiazol-2-ylcarbonyl)pyrrolidin-3-amine], the IC50 in test [2] is 22.4 nM. Besides, the “Rat Brain 2AG % VehCntrl (%) @1 μM” value in test [3] worked out at 472%.

In the case of `O=C(c1nccs1)N1CC[C@H](NC2CN(C(=O)c3ccc4c(ccn4-c4ccc(F)cc4)c3F)C2)C1` [Cpd 198, (3S)-N-(1-{[4-Fluoro-1-(4-fluorophenyl)-1H-indol-5-yl]carbonyl}azetidin-3-yl)-1-(1,3-thiazol-2-ylcarbonyl)pyrrolidin-3-amine], in test [2], the IC50 is less than 5 nM. Besides, the “Rat Brain 2AG % VehCntrl (%) @1 μM” value in test [3] is given as 937%.

Regarding `O=C(c1nccs1)N1CC[C@H](NC2CN(C(=O)c3sc4cc(-c5ccccc5)ccc4c3C(F)(F)F)C2)C1` [Cpd 208, (3S)-N-(1-{[6-Phenyl-3-(trifluoromethyl)-1-benzothiophen-2-yl]carbonyl}azetidin-3-yl)-1-(1,3-thiazol-2-ylcarbonyl)pyrrolidin-3-amine], in test [2], the IC50 came to 13.4 nM. Moreover, the “Rat Brain 2AG % VehCntrl (%) @1 μM” value in test [3] was found to be 359%.

With `O=C(c1nccs1)N1CC[C@H](NC2CN(C(=O)c3cc4ccn(-c5ccc(F)cc5)c4cc3F)C2)C1` [Cpd 212, (3S)-N-(1-{[6-Fluoro-1-(4-fluorophenyl)-1H-indol-5-yl]carbonyl}azetidin-3-yl)-1-(1,3-thiazol-2-ylcarbonyl)pyrrolidin-3-amine], the IC50 in test [2] was less than 5 nM. In test [3], the “Rat Brain 2AG % VehCntrl (%) @1 μM” value is on record as 582%.
